Assay results from US20050026866A1 (priority 2002, published 2005).
Read-outs that look alike come from different tables or passages of the source.

Key:
Type in all cases: cell-based
[1] = system: Bordetella attachment and invasion into human melanoma cell line Skmel-23/C22
Procedure: Bordetella pertussis was cultured for 48-72 h on Bordet-Gengou agar plates (Remel, Inc.) in a 37° C. incubator. Prior to exposure of bacteria to mammalian cells (15-30 minutes), the bacteria were loop-transferred to Luria-Bertani (LB) liquid growth medium and adjusted to a concentration of 10^9 cfu/ml (OD600=0.5). Human Skmel-23/C22 metastatic melanoma cells, normal human melanocytes, or normal human fibroblasts were inoculated into Corning 12 well tissue culture plates (2-4×10^4 cells/well) in antibiotic-free DMEM growth medium supplemented with 10% fetal bovine serum, and placed in a gassed, humidified incubator, at 37° C. After 24 h, melanoma cells were fed with 1 ml fresh medium, and 15-20 h later, Bordetella pertussis strain 536 was added as described below. Potential inhibitors of Bordetella attachment and invasion of melanoma cells were added immediately before, or up to 2 h before addition of bacteria, as noted. […] Melanoma cells were then plated onto Bordet-Gengou agar plates in serial dilutions, incubated at 37° for 4d, and Bordetella pertussis were quantitated by colony counts as ‘colony forming units’ (cfu). […]
Structural requirements on cancer cells for attachment and invasion of B. pertussis. Quantitative invasion assays were carried out with various additives to investigate structural requirements on human melanoma cells for attachment and invasion of B. pertussis. […]

[2] = system: SKMel-23 human melanoma cells; conditions: L-histidine alone, no B. pertussis strain
Procedure: Skmel-23/C22 human melanoma cells were cultured 15 h with or without the addition of B. pertussis to the culture medium.
(§1) Cancer cells tested were human carcinomas of the breast, lung, and kidney, and melanoma. Toxicity of B. pertussis strain 536, but not of Tohama I, was dependent on the simultaneous addition of rich nutrient broth such as Luria-Bertani bacterial growth medium, or amino acid-rich broths such as tryptone or casamino acids. […] The principal active ingredient in these broths was the amino acid histidine. […] Of 18 amino acids tested, only histidine induced a Bordetella-mediated cytotoxic/lytic effect.

[3] = system: human carcinomas of the breast, lung, and kidney, and melanoma; conditions: without bacteria
Excerpt: as §1

Q: With Arg-Gly-Asp [RGD] as the compound, how does the “Bordetella (cfu/well) (% Control +/− S.D.)” value ([1]; 0.8 mg/ml, added 2 h prior to bacteria, implied target Arg-Gly-Asp tripeptide sequence) read?
A: Its value is 50 ± 5 % Control.

Q: `C[C@H](O)[C@@H](O)[C@@H](O)[C@H](O)C=O` [L-fucose] was tested. Which “Bordetella (cfu/well) (% Control +/− S.D.)” value ([1]; 0.2% wt/vol, added 5 min. prior to bacteria, implied target fucosylated structures) did it give?
A: The value was 52 ± 14 % Control.

Q: What does the source list for `N[C@@H](Cc1c[nH]cn1)C(=O)O` [L-histidine]?
A: melanoma cells/well (24 h post-treatment) [2]: 1.7 ± .07 × 10^5 melanoma cells/well; melanoma cells/well, % untreated cultures ([2]; 24 h post-treatment): 106 % untreated cultures; toxicity of histidine alone [3]: no toxicity
